# In patent US20100261710A1, “HDAC Inhibitors” (ARQULE, INC., priority 2007, published 2010):
# Where two headings read alike, the source gives them in different places.
# Key:
# HDAC3 = molecular target: T1, HDAC3 (Homo sapiens, UniProt O15379); experiment: HDAC isoform assay, HDAC3; format: biochemical
# T1 construct: purchased BioMol
# Description: The assay measures the ability of a small molecule to inhibit deacetylation of the substrate. Activator reagent recognizes the substrate only if the lysine has been deacetylated.
# This homogeneous assay in performed in the same well without washing steps. The HDAC source, nuclear HeLa extract, is incubated with substrate in the presence of an inhibitor compound. At the end of the reaction time, activator solution, containing Trypsin and TSA, is added to stop the deacetylation reaction, and cleave the amino-coumarin from the deacetylated substrate. The plate is then read on either a Perkin Elmer Victor or Envision system using Umbilliferone filter set. […] The signal is directly proportional to the activity of HDACs and compound inhibition of HDAC is monitored by a decrease in signal.
# HH cells = experiment: MTS cell viability assay, HH; format: cell-based; conditions: Homo sapiens, 72 hr, read-out: HH, IG50, MTS
# Description: The MTS cell viability assay was used to determine the potency of proliferation inhibitor with. MTS measures mitochondrial dehydrogenase activity and serves as surrogate readout for the number of viable cells. The protocol described below is based upon the “CellTiter 96 Aqueous Non-Radioactive Cell Proliferation Assay” sold by Promega (Technical Bulletin No. 169).
# (§1) For MTS assay, cells were plated in 96-well plates at 2000 cells per well and incubated in the presence of compounds for 72 hr. MTS was added to each well as instructed by manufacture (Promega) and plates were incubated for 4 h at 37° C. The absorbance of each well was measured at 490 nm using a microplate reader.
# HCT-116 cells = experiment: MTS cell viability assay, HCT-116; format: cell-based; conditions: Homo sapiens
# Description: The MTS cell viability assay was used to determine the potency of proliferation inhibitor with. MTS measures mitochondrial dehydrogenase activity and serves as surrogate readout for the number of viable cells.
# as §1
# HDAC4 = molecular target: T2, HDAC4 (Homo sapiens, UniProt P56524); experiment: HDAC isoform assay, HDAC4; format: biochemical; conditions: substrate KI-177; read-out: HDAC4, IC50, ELISA (KI-177)
# T2 construct: purchased BioMol
# T2 sequence (P56524 whole entry, canonical isoform): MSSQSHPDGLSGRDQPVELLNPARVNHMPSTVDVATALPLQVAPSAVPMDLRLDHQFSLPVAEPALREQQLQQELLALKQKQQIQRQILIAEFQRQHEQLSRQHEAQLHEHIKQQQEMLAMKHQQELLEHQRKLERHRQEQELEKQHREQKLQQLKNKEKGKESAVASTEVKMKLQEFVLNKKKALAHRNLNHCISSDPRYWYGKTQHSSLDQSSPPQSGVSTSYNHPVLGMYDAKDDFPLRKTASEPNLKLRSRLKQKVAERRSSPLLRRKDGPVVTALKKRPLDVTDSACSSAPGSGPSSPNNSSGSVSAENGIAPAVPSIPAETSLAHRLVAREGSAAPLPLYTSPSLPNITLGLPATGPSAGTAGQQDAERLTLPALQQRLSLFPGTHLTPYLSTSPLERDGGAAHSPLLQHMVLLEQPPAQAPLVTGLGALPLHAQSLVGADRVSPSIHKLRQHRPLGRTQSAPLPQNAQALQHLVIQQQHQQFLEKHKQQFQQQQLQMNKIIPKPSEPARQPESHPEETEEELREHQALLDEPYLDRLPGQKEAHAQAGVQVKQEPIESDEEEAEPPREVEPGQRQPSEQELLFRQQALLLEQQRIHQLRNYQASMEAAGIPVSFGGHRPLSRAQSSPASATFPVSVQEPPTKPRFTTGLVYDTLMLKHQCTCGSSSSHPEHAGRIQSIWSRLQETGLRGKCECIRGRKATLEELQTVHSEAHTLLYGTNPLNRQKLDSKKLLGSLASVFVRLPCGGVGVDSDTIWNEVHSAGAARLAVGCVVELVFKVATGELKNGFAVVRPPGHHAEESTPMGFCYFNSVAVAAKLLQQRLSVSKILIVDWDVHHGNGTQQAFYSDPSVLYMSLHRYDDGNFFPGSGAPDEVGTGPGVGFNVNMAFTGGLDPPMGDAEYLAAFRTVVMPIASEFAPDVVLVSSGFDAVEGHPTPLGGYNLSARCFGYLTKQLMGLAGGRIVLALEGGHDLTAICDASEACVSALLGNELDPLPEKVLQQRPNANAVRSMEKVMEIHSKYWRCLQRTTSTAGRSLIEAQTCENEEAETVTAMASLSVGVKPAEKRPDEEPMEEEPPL
# HDAC8 = molecular target: T3, HDAC8 (Homo sapiens, UniProt Q9BY41); experiment: HDAC isoform assay, HDAC8
# T3 sequence (Q9BY41 1-377): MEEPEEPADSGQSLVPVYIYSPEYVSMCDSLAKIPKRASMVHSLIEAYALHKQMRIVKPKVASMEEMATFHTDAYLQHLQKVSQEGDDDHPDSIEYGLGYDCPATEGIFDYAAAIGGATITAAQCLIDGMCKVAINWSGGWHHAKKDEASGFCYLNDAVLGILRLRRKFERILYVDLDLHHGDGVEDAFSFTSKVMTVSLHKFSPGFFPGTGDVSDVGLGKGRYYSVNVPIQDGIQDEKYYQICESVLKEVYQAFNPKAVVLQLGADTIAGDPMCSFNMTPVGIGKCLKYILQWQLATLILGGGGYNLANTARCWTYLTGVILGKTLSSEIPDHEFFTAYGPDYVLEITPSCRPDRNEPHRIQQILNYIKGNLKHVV
# HDAC9 = molecular target: T4, HDAC9 (Homo sapiens, UniProt Q9UKV0); experiment: HDAC isoform assay, HDAC9; format: biochemical
# T4 construct: purchased BioMol
# T4 sequence (Q9UKV0 whole entry, canonical isoform): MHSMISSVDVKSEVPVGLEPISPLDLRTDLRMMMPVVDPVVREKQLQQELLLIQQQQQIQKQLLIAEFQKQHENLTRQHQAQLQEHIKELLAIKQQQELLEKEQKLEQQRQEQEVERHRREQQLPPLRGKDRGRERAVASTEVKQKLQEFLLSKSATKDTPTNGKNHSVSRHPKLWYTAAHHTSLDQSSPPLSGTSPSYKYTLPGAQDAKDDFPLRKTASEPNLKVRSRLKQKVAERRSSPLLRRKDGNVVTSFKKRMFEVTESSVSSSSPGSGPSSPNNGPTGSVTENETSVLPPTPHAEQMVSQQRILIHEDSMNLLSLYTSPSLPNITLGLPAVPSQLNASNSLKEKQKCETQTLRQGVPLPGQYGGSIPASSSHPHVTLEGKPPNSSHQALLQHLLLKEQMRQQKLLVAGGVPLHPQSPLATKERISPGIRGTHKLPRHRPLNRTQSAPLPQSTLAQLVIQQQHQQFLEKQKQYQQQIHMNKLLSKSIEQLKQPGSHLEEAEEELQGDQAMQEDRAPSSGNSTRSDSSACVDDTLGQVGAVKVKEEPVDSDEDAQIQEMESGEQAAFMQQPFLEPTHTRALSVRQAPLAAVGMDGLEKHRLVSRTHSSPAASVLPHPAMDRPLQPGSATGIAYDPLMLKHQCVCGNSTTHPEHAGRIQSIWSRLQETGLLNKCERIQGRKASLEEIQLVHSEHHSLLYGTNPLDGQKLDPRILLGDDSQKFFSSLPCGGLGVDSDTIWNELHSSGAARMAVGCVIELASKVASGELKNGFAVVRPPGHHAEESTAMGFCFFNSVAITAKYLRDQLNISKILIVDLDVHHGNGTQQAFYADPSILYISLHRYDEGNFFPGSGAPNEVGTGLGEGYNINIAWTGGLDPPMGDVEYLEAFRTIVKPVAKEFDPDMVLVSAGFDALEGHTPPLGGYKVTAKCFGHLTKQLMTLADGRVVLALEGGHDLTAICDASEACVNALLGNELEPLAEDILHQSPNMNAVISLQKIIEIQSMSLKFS
# HDAC2 = molecular target: T5, HDAC2 (Homo sapiens, UniProt Q92769); experiment: HDAC isoform assay, HDAC2; format: biochemical; conditions: substrate KI-177; read-out: HDAC2, IC50, ELISA (KI-177)
# T5 construct: purchased BioMol
# T5 sequence (Q92769 whole entry, canonical isoform): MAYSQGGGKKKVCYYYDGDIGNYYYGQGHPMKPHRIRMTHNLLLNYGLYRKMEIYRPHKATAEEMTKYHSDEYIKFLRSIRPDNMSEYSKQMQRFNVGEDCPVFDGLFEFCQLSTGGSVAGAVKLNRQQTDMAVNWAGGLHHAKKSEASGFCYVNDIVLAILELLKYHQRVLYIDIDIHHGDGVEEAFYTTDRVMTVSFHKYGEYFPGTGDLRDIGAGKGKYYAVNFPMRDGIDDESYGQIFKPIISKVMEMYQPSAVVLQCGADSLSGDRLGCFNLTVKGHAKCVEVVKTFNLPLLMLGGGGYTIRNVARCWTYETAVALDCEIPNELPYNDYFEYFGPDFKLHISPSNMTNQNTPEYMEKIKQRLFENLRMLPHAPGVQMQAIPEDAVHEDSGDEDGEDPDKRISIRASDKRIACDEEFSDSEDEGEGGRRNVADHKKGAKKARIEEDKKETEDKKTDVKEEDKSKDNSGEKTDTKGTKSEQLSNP
# [1] = substrate KI-177, read-out: HDAC3, IC50, ELISA (KI-177)
# [2] = HCT-116, 72 hr, read-out: HCT-116, IG50, MTS
# [3] = HCT-116, 72 h, read-out: HCT-116, IG50, MTS (uM)
# T1 sequence (O15379 whole entry, canonical isoform): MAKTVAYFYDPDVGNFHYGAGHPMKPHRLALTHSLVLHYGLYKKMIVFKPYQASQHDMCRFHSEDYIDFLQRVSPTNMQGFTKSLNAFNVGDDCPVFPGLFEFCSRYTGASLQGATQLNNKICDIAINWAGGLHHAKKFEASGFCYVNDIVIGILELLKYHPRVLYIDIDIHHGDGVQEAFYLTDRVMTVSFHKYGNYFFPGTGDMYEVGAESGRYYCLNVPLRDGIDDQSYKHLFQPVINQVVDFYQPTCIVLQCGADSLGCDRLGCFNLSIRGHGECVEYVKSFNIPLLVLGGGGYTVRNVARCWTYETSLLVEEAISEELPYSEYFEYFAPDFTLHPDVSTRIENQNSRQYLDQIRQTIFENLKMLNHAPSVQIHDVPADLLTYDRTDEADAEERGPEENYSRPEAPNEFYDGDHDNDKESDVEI
# T1 sequence (O75376 395-489 partner limits assumed): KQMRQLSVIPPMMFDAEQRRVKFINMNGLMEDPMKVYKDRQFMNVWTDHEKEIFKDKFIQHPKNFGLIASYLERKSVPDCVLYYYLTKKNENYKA
SMILES,IC50 (HDAC3; [1]) [nM],IC50 (HH cells) [nM],IC50 (HCT-116 cells; [2]) [µM],IC50 (HDAC4) [nM],IC50 (HDAC8) [nM],IC50 (HDAC9) [nM],IC50 (HDAC2) [nM],melting point [°C],IC50 (HDAC3) [nM],IC50 (HCT-116 cells; [3]) [µM]
"O=C(CCCCCCNC(=O)Nc1cn2c3c(cccc13)CCC2)NO [compound 11, 7-[(5,6-dihydro-4H-pyrrolo[3,2,1-ij]quinolin-1-ylcarbamoyl)amino]-N-hydroxyheptanamide]",23,94,0.492,40.4,492,88.7,1340,185 to 187,–,–
"O=C(CCCCCNC(=O)C(=O)c1cn2c3c(cccc13)CCC2)NO [compound 8, 6-{[5,6-dihydro-4H-pyrrolo[3,2,1-ij]quinolin-1-yl(oxo)acetyl]amino}-N-hydroxyhexanamide]",–,2620,–,–,9240,–,1800,150 to 155,20.4,0.737
"O=C(CCCCCNC(=O)Nc1cn2c3c(cccc13)CCC2)NO [compound 13, 6-[(5,6-dihydro-4H-pyrrolo[3,2,1-ij]quinolin-1-ylcarbamoyl)amino]-N-hydroxyhexanamide]",20.5,1020,0.636,–,918,97.2,1780,161 to 163,–,–
"O=C(CCCCCNC(=O)c1cn2c3c(cccc13)CCC2)NO [compound 2, N-[6-(hydroxyamino)-6-oxohexyl]-5,6-dihydro-4H-pyrrolo[3,2,1-ij]quinoline-1-carboxamide]",–,1720,–,–,1090,106,1940,–,13.6,0.63
"O=C(CCCNC(=O)C(=O)c1cn2c3c(cccc13)CCC2)NO [compound 9, 4-{[5,6-dihydro-4H-pyrrolo[3,2,1-ij]quinolin-1-yl(oxo)acetyl]amino}-N-hydroxybutanamide]",–,365,–,–,10000,–,3000,95 to 97,630,5.02
"O=C(CCCCCCNC(=O)c1cn2c3c(cccc13)CCC2)NO [compound 3, N-[7-(hydroxyamino)-7-oxoheptyl]-5,6-dihydro-4H-pyrrolo[3,2,1-ij]quinoline-1-carboxamide]",–,111,–,40.5,408,413,2460,205 to 206,45.7,0.215
"O=C(CCCCCCNC(=O)C(=O)c1cn2c3c(cccc13)CCC2)NO [compound 12, 7-{[5,6-dihydro-4H-pyrrolo[3,2,1-ij]quinolin-1-yl(oxo)acetyl]amino}-N-hydroxyheptanamide]",87.6,45,0.701,298,6420,1060,2320,158 to 159,–,–
